The nature of series [1]: in vitro. Particulars: mouse, microsomes.
A short description of series [2]: in vitro. As to conditions: rat, microsomes.
The nature of series [3]: in vitro. As to conditions: human, microsomes.
In the next series the test system is Caco-2. Particulars: human.

Bounds are passed on as bounds.

Usually microsomal CLint stands for the rate of metabolic loss divided by the concentration. Low values mean slow turnover, high ones rapid turnover. For `CNC(=O)c1ccc2cncc(-c3ccc(-c4cnn(C)c4)cc3)c2n1` [Compound 4], the microsomal CLint at 1 µM was 172 µL/min/mg in “in vitro [1]” and 40 µL/min/mg in the series “in vitro [3]”. The molecule further had a microsomal CLint in the series “in vitro [2]” of over 1000 µL/min/mg.
`CNC(=O)c1ccc2cncc(-c3ccc4c(cnn4C)c3)c2n1` [Compound 5]: the figures for the microsomal CLint at 1 µM in “in vitro [1]”, in the series “in vitro [2]” and in the series “in vitro [3]” were 444 µL/min/mg, 699 µL/min/mg and 116 µL/min/mg, respectively.
With `CNC(=O)c1ccc2cncc(-c3ccc4cnn(C)c4c3)c2n1` [Compound 6], the results for the microsomal CLint at 1 µM in the series “in vitro [1]”, in “in vitro [2]” and in the series “in vitro [3]” were 333 µL/min/mg, 178 µL/min/mg and 32 µL/min/mg, respectively.
Consider `Cn1cc(-c2ccc(-c3cncc4ccc(C(N)=O)nc34)cc2)cn1` [Compound 9], for which the figures for the microsomal CLint at 1 µM in the series “in vitro [1]” and in “in vitro [3]” were 155 µL/min/mg and 34 µL/min/mg, respectively.
On to `Cn1cc(-c2ccc(-c3cncc4ccc(C(=O)N5CCC5)nc34)cc2)cn1` [Compound 12], for which the intrinsic clearance (microsomal CLint) at 1 µM in “in vitro [1]” came out at 143 µL/min/mg; in the series “in vitro [2]”, 85 µL/min/mg; in the series “in vitro [3]”, 38 µL/min/mg.
For `Cn1cc(-c2ccc(-c3cncc4ccc(C(=O)N5CC(F)(F)C5)nc34)cc2)cn1` [Compound 14], the microsomal CLint at 1 µM in “in vitro [1]” is 160 µL/min/mg; in “in vitro [2]” it was 317 µL/min/mg; in the series “in vitro [3]”, 111 µL/min/mg.
In the case of `Cn1cc(-c2ccc(-c3cncc4ccc(C(=O)N5CCCC5)nc34)cc2)cn1` [Compound 15], the values for the microsomal CLint at 1 µM in “in vitro [1]”, in the series “in vitro [2]” and in “in vitro [3]” were 321 µL/min/mg, 55 µL/min/mg and 38 µL/min/mg, respectively.
For `Cn1cc(-c2ccc(-c3cncc4ccc(C(=O)N5CCOCC5)nc34)cc2)cn1` [Compound 16], the figures for the microsomal CLint at 1 µM in the series “in vitro [1]”, in “in vitro [2]” and in the series “in vitro [3]” were 83 µL/min/mg, 23 µL/min/mg and 41 µL/min/mg, respectively.
For `Cn1cc(-c2ccc(-c3cncc4ccc(N5CCNC5=O)nc34)cc2)cn1` [Compound 20], the microsomal CLint at 1 µM came to 246 µL/min/mg in “in vitro [1]”, 323 µL/min/mg in the series “in vitro [2]” and 64 µL/min/mg in “in vitro [3]”.
For the molecule `Cn1cc(-c2ccc(-c3cncc4ccc(-c5ccnn5C)nc34)cc2)cn1` [Compound 23], the microsomal CLint at 1 µM is 310 µL/min/mg in “in vitro [1]”, 761 µL/min/mg in the series “in vitro [2]” and 144 µL/min/mg in “in vitro [3]”.
`Cn1cc(-c2ccc(-c3cncc4ccc(-c5ccn(C)n5)nc34)cc2)cn1` [Compound 24]: the microsomal CLint at 1 µM in “in vitro [1]” worked out at 299 µL/min/mg; in the series “in vitro [2]”, 212 µL/min/mg; in “in vitro [3]”, 45 µL/min/mg.
For the molecule `Cn1cc(-c2ccc(-c3cncc4ccc(-c5nccn5C)cc34)cc2)cn1` [Compound 33], the microsomal CLint at 1 µM in the series “in vitro [1]” turned out to be 570 µL/min/mg; in “in vitro [2]”, 307 µL/min/mg; in the series “in vitro [3]”, 398 µL/min/mg.
For the molecule `Cn1cc(-c2ccc(-c3cnc(N)c4ccc(C(=O)N5CCOCC5)nc34)cc2)cn1` [Compound 50], in the series with Caco-2, the “Caco-2 ER” value is recorded as 9 and the “Caco-2 PappA-B” value was 34.0 × 10^–6 cm/s.
For `Cn1cc(-c2ccc(-c3cnc(N)c4ccc(C(=O)N5CCC5)nc34)cc2)cn1` [Compound 52], in the series on Caco-2, the “Caco-2 ER” value is 5.3. In the series with Caco-2, the “Caco-2 PappA-B” value was 42.6 × 10^–6 cm/s. For the same molecule, the results for the microsomal CLint at 1 µM in the series “in vitro [1]”, in the series “in vitro [2]” and in “in vitro [3]” were 61 µL/min/mg, 38 µL/min/mg and 24 µL/min/mg, respectively.
For `COC1(C)CN(C(=O)c2ccc3c(N)ncc(-c4ccc(-c5cnn(C)c5)cc4)c3n2)C1` [Compound 53], in the series with Caco-2, the “Caco-2 ER” value was 5.8 and the “Caco-2 PappA-B” value is reported as 40.1 × 10^–6 cm/s. The molecule also came in with a microsomal CLint at 1 µM in “in vitro [1]” of 48 µL/min/mg. In “in vitro [2]”, this molecule registered a microsomal CLint of 25 µL/min/mg. Besides, the microsomal CLint in “in vitro [3]” worked out at 25 µL/min/mg.
For the molecule `Cn1cc(-c2ccc(-c3cnc(N)c4ccc(C(=O)N5CC(F)(F)C5)nc34)cc2)cn1` [Compound 54], the “Caco-2 ER” value with Caco-2 came to 1.8. The “Caco-2 PappA-B” value with Caco-2 is reported as 23.9 × 10^–6 cm/s. For the same molecule, the results for the microsomal CLint at 1 µM in “in vitro [1]”, in the series “in vitro [2]” and in the series “in vitro [3]” were 107 µL/min/mg, 19 µL/min/mg and 25 µL/min/mg, respectively.

Source of the values: publication PMC4904262 (ACS Medicinal Chemistry Letters, 2016).
